Test results published in ChEMBL document CHEMBL4229375, “Towards new antibiotics targeting bacterial transglycosylase: Synthesis of a Lipid II analog as stable transition-state mimic inhibitor” (Bioorg Med Chem Lett, 2018).

Biological target: Bacterial penicillin-binding protein (Bacteria) (UniProt P24228+P0AD68+P02918+P02919+P0AEB2+P0AD65+P08506)
Experiment: Inhibition of Acinetobacter baumannii PBP transglycosylase activity at 50 uM using NBD-labeled lipid 2 as substrate after 30 mins by N-acetylmuramidase enzyme coupled HPLC analysis relative to control
Type: protein assay

inhibition: 70%
SMILES: CC(=O)N[C@H]1[C@H](O[C@H]2[C@H](O)[C@H](O)[C@@H](CP(=O)(O)OP(=O)(O)OC/C=C(\C)CC/C=C(/C)CC/C=C(\C)CCC=C(C)C)N[C@@H]2CO)O[C@H](CO)[C@@H](O)[C@@H]1O
